Where two headings read alike, the source gives them in different places.
Experiments:
Assay type in all cases: cell-based
Escherichia coli = experiment: MIC measurement in agar medium (dilution test), Coli; conditions: potentiator alone
Excerpt: Inhibitory minimum concentration measurement tests are made in a solid agar medium according to international standards in force (CLSI M7-A9 Jan 12 standards): dispersion of the compounds to be tested in a Mueller Hinton gelose. An adaptation relating to the hydrophobicity of compounds and compositions is however necessary to disperse them in the medium: dilution of the compounds in a solvent. The compounds and compositions incorporated in the agar medium can be diluted beforehand in one or more solvents (Tween® 80 diluted with water, Tween® 80 diluted with […], DMSO diluted with water). The strains are deposited onto the agar surface with a steers apparatus. In the examples, different dissolution methods for products are tested in parallel to circumvent the problems of water/solvent distribution coefficient of the molecules (antimicrobial and potentiator) whereas the bacteria grow only in the aqueous phase. The technical requirement will not intervene in in vivo tests. The same dilution methods can be implemented in a liquid medium (microplates and tubes). The same methodology is implemented with fungi. […] MIC measurement: the minimum inhibitory concentration measurement tests are made in an agar solid medium according to international standards in force (CLSI standards), according to the previously defined protocol. […] The booster contribution as compared with the MIC of the antibiotic alone is expressed in a (MIC ATB)/(MIC ATB+booster) ratio. Thereby, gains are defined: […]

E. Coli Strain 08138 = experiment: Etest, E. Coli Strain 08138; conditions: for MIC: Escherichia coli, read-out: MIC of Pipera tazo, Strain 08138; for MIC of Cefoxitine: Strain 08138
Excerpt: (§1) The corresponding tests are made based on the usual MIC test: the Etest® (Biomerieux) strip is deposited onto the surface of a seeded agar medium in which the booster has been incorporated. This test enables solvent effect risks, that is a possible interaction with the solvent used in vitro, to be minimised.
(§2) The control corresponds to the test made without cineol. A control is made in each solvent tested: distilled water, Tween/water and DMSO.
(§3) ED control=antibiotic alone in distilled water
(§4) DMSO control=antibiotic alone in DMSO
(§5) TE control=antibiotic alone in Tween® 80

E. Coli Strain 8150 = experiment: Etest, E. Coli Strain 8150; conditions: for MIC: Escherichia coli, read-out: MIC of Pipera tazo, Strain 8150; for MIC of Meropenem / MIC of Tigecycline: Strain 8150
Excerpt: as §1, §2, §3, §4, §5

MRSA 10178 = experiment: Etest, staphylococci MRSA 10178; conditions: MRSA 10178
Excerpt: as §1, §2, §3, §4, §5

MSSA 8237 = experiment: Etest, staphylococci MSSA 8237; conditions: for MIC: Staphylococcus aureus, MSSA
Excerpt: as §1, §2, §3, §4, §5

[1] = test system: Strain 09003, methicillin resistant S. aureus (MRSA); experiment: Resistance test (resistant mutants), Strain 09003; conditions: MRSA, text after Table 15
Protocol: (§6) After 48 h incubation, the presence or absence of colonies likely to be resistant mutants is observed.
(§7) ED control or DMSO=only distilled water or DMSO is added
(§8) Ciprofloxacine DMSO: addition of Ciprofloxacine in DMSO

[2] = test system: Strain 10168, methicillin resistant S. aureus (MRSA); experiment: Resistance test (resistant mutants), Strain 10168; conditions: MRSA, text after Table 16
Protocol: as §6, §7, §8

[3] = test system: methicillin resistant S. aureus (MRSA) strains 09003, 10168; experiment: MIC of the potentiator used alone on the strains of Examples 3 and 4; conditions: Staphylococcus aureus, on these strains
[4] = booster 1 mg/L in agar, Tween/water
[5] = booster 4 mg/L in agar, Tween/water
[6] = booster 16 mg/L in agar, Tween/water
[7] = MSSA 8237, booster 1 mg/L in agar, DMSO
[8] = MSSA 8237, booster 1 mg/L in agar, Tween/water
[9] = MSSA 8237, booster 4 mg/L in agar, DMSO
[10] = MSSA 8237, booster 4 mg/L in agar, Tween/water
[11] = MSSA 8237, booster 16 mg/L in agar, DMSO
[12] = MSSA 8237, booster 16 mg/L in agar, Tween/water

## O=C(OCc1ccccc1)c1ccccc1 [BB, benzyl benzoate]
Escherichia coli; solvent DMSO
  MIC 50: >1%
  MIC 90: >1%
Escherichia coli; solvent Tween/prop glyc
  MIC 50: >1%
  MIC 90: >1%
Escherichia coli; solvent Tween/water
  MIC 50: >1%
  MIC 90: >1%
Escherichia coli; solvent water/water
  MIC 50: >1%
  MIC 90: >1%
E. Coli Strain 08138; booster 1 mg/L in agar, DMSO
  MIC: 3 mg/L
  MIC of Cefoxitine: 2 mg/L
E. Coli Strain 08138; [4]
  MIC: 6 mg/L
  MIC of Cefoxitine: 2 mg/L
E. Coli Strain 08138; booster 4 mg/L in agar, DMSO
  MIC: 6 mg/L
  MIC of Cefoxitine: 3 mg/L
E. Coli Strain 08138; [5]
  MIC: 4 mg/L
  MIC of Cefoxitine: 2 mg/L
E. Coli Strain 08138; booster 16 mg/L in agar, DMSO
  MIC: 6 mg/L
  MIC of Cefoxitine: 2 mg/L
E. Coli Strain 08138; [6]
  MIC: 4 mg/L
  MIC of Cefoxitine: 3 mg/L
E. Coli Strain 8150; booster 1 mg/L in agar, DMSO
  MIC: 0.75 mg/L
  MIC of Meropenem: 0.047 mg/L
  MIC of Tigecycline: 0.125 mg/L
E. Coli Strain 8150; [4]
  MIC: 1.5 mg/L
  MIC of Meropenem: 0.094 mg/L
  MIC of Tigecycline: 0.125 mg/L
E. Coli Strain 8150; booster 4 mg/L in agar, DMSO
  MIC: 1 mg/L
  MIC of Meropenem: 0.064 mg/L
  MIC of Tigecycline: 0.094 mg/L
E. Coli Strain 8150; [5]
  MIC: 1 mg/L
  MIC of Meropenem: 0.064 mg/L
  MIC of Tigecycline: 0.19 mg/L
E. Coli Strain 8150; booster 16 mg/L in agar, DMSO
  MIC: 1 mg/L
  MIC of Meropenem: 0.094 mg/L
  MIC of Tigecycline: 0.125 mg/L
E. Coli Strain 8150; [6]
  MIC: 1.5 mg/L
  MIC of Meropenem: 0.094 mg/L
  MIC of Tigecycline: 0.094 mg/L
MRSA 10178; booster 1 mg/L in agar, DMSO
  MIC of Cefoxitine: 3 mg/L
  MIC of Tigecycline: 0.047 mg/L
MRSA 10178; [4]
  MIC of Cefoxitine: 3 mg/L
  MIC of Tigecycline: 0.094 mg/L
MRSA 10178; booster 4 mg/L in agar, DMSO
  MIC of Cefoxitine: 2 mg/L
  MIC of Tigecycline: 0.125 mg/L
MRSA 10178; [5]
  MIC of Cefoxitine: 2 mg/L
  MIC of Tigecycline: 0.25 mg/L
MRSA 10178; booster 16 mg/L in agar, DMSO
  MIC of Cefoxitine: 1 mg/L
  MIC of Tigecycline: 0.032 mg/L
MRSA 10178; [6]
  MIC of Cefoxitine: 1.5 mg/L
  MIC of Tigecycline: 0.047 mg/L
MSSA 8237; [7]
  MIC of Cefoxitine: 2 mg/L
  MIC of Meropenem: 0.25 mg/L
  MIC of Penicillin G: 0.38 mg/L
MSSA 8237; [8]
  MIC of Cefoxitine: 3 mg/L
  MIC of Meropenem: 0.19 mg/L
  MIC of Penicillin G: 0.25 mg/L
MSSA 8237; [9]
  MIC of Cefoxitine: 3 mg/L
  MIC of Meropenem: 0.19 mg/L
  MIC of Penicillin G: 0.25 mg/L
MSSA 8237; [10]
  MIC of Cefoxitine: 3 mg/L
  MIC of Meropenem: 0.125 mg/L
  MIC of Penicillin G: 0.19 mg/L
MSSA 8237; [11]
  MIC of Cefoxitine: 3 mg/L
  MIC of Meropenem: 0.19 mg/L
  MIC of Penicillin G: 0.19 mg/L
MSSA 8237; [12]
  MIC of Cefoxitine: 3 mg/L
  MIC of Meropenem: 0.064 mg/L
  MIC of Penicillin G: 0.125 mg/L
MSSA 8237; MSSA 8237, booster 1 mg/L in agar, DMSO, read-out: MIC of Clindamycine
  MIC: 0.047 mg/L
MSSA 8237; MSSA 8237, booster 1 mg/L in agar, Tween/water, read-out: MIC of Clindamycine
  MIC: 0.047 mg/L
MSSA 8237; MSSA 8237, booster 4 mg/L in agar, DMSO, read-out: MIC of Clindamycine
  MIC: 0.047 mg/L
MSSA 8237; MSSA 8237, booster 4 mg/L in agar, Tween/water, read-out: MIC of Clindamycine
  MIC: 0.047 mg/L
MSSA 8237; MSSA 8237, booster 16 mg/L in agar, DMSO, read-out: MIC of Clindamycine
  MIC: 0.047 mg/L
MSSA 8237; MSSA 8237, booster 16 mg/L in agar, Tween/water, read-out: MIC of Clindamycine
  MIC: 0.094 mg/L
MSSA 8237; read-out: MIC of Pipera tazo, MSSA 8237, booster 1 mg/L in agar, DMSO
  MIC: 1 mg/L
MSSA 8237; read-out: MIC of Pipera tazo, MSSA 8237, booster 1 mg/L in agar, Tween/water
  MIC: 1 mg/L
MSSA 8237; read-out: MIC of Pipera tazo, MSSA 8237, booster 4 mg/L in agar, DMSO
  MIC: 1 mg/L
MSSA 8237; read-out: MIC of Pipera tazo, MSSA 8237, booster 4 mg/L in agar, Tween/water
  MIC: 1 mg/L
MSSA 8237; read-out: MIC of Pipera tazo, MSSA 8237, booster 16 mg/L in agar, DMSO
  MIC: 0.75 mg/L
MSSA 8237; read-out: MIC of Pipera tazo, MSSA 8237, booster 16 mg/L in agar, Tween/water
  MIC: 0.75 mg/L
[1]
  occurrence of mutants on addition of the compound to ciprofloxacine: does not cause the occurrence of mutants any longer
[2]
  occurrence of mutants on addition of the compound to ciprofloxacine: does not cause the occurrence of mutants any longer
[3]
  MIC: > 10000 mg/L
